Here are results for 36 compounds from patent publication US8580790B2, “(Heterocycle/condensed piperidine)-(piperazinyl)-1-alkanone or (heterocycle/condensed pyrrolidine)-(piperazinyl)-1-alkanone derivatives and use thereof as p75 inhibitors” (Sanofi, priority 2009, dated 2013).

Where a name gives a salt, the structure may show the parent alone.

`C[C@@H]1CN(c2cccnc2)C[C@H](C)N1CC(=O)N1CCc2nn(-c3ccncc3)cc2C1` [compound 141, 2-((2S,6R)-2,6-dimethyl-4-pyridin-3-ylpiperazin-1-yl)-1-(2-pyridin-4-yl-2,4,6,7-tetrahydropyrazolo[4,3-c]pyridin-5-yl)ethanone] gave a melting point of 163 to 164 °C. Then `O=C(CN1CC2CCC(C1)N2c1ccc(-c2noc(=O)[nH]2)cn1)N1CCc2nn(-c3ccccc3)cc2C1`, with 176 to 179 °C; and `O=C(CN1CCCN(c2cccnc2)CC1)N1CCc2nc(-c3ccccc3)sc2C1` (as salt: HCl) [compound 30, 1-(2-phenyl-6,7-dihydro-4H-thiazolo[5,4-c]pyridin-5-yl)-2-(4-pyridin-3-yl-[1,4]diazepan-1-yl)ethanone], with 142 to 145 °C. Turning to `Cn1cc2c(n1)CCN(C(=O)CN1CC3CCC(C1)N3c1ccc(C(F)(F)F)cn1)C2`, the melting point lay in the range of 70 to 71 °C. `C[C@@H]1CN(c2ccc(C(F)(F)F)cn2)C[C@H](C)N1CC(=O)N1CCc2nn(-c3ccccn3)cc2C1` [compound 118, 2-[(2S,6R)-2,6-dimethyl-4-(5-trifluoromethylpyridin-2-yl)piperazin-1-yl]-1-(2-pyridin-2-yl-2,4,6,7-tetrahydropyrazolo[4,3-c]pyridin-5-yl)ethanone] had a melting point of 165 to 166 °C. Then `C[C@@H]1CN(c2cnccn2)C[C@H](C)N1CC(=O)N1CCc2nn(-c3ccc(C(F)(F)F)cn3)cc2C1` [compound 111, 2-((3S,5R)-3,5-dimethyl-2,3,5,6-tetrahydro[1,2′]bipyrazinyl-4-yl)-1-[2-(5-trifluoromethylpyridin-2-yl)-2,4,6,7-tetrahydropyrazolo[4,3-c]pyridin-5-yl]ethanone], with 150 to 151 °C. The compound `Cc1nc(-c2ccc(N3C[C@@H](C)N(CC(=O)N4CCc5nn(-c6ccccc6)cc5C4)[C@@H](C)C3)nc2)no1` [compound 89, 2-{(2S,6R)-2,6-dimethyl-4-[5-(5-methyl[1,2,4]oxadiazol-3-yl)-pyridin-2-yl]piperazin-1-yl}-1-(2-phenyl-2,4,6,7-tetrahydropyrazolo[4,3-c]pyridin-5-yl)ethanone] had a melting point of 163 to 164 °C.

The compound `O=C(CN1CCN(c2cccc(Cl)n2)CC1)N1CCc2nn(-c3ccccc3)cc2C1` [compound 114, 2-[4-(6-chloropyridin-2-yl)piperazin-1-yl]-1-(2-phenyl-2,4,6,7-tetrahydropyrazolo[4,3-c]pyridin-5-yl)ethanone] gave a melting point of 155 to 156 °C. As for `C[C@@H]1CN(c2cccnc2)C[C@H](C)N1CC(=O)N1CCc2nn(-c3ccc(C(F)(F)F)cn3)cc2C1` [compound 143, 2-((2S,6R)-2,6-dimethyl-4-pyridin-3-ylpiperazin-1-yl)-1-[2-(5-trifluoromethylpyridin-2-yl)-2,4,6,7-tetrahydropyrazolo[4,3-c]pyridin-5-yl]ethanone], the melting point is 196 to 197 °C.

In turn, `O=C(CN1CC2CCC(C1)N2c1ncc(F)cn1)N1CCc2oc(-c3ccccc3)nc2C1` came in with a melting point of 88 to 89 °C. The compound `C[C@@H]1CN(c2ccc(C(F)(F)F)cn2)C[C@H](C)N1CC(=O)N1CCc2nc(-c3ccccc3)[nH]c2C1` [compound 110, 2-[(2S,6R)-2,6-dimethyl-4-(5-trifluoromethylpyridin-2-yl)piperazin-1-yl]-1-(2-phenyl-3,4,6,7-tetrahydroimidazo[4,5-c]pyridin-5-yl)ethanone] yielded a melting point of 189 to 192 °C.

On to `O=C(O)c1ccc(N2CC3CCC(C2)N3CC(=O)N2CCc3nn(-c4ccccc4)cc3C2)nc1`, for which the melting point fell in the range of 207 to 208 °C. Consider `C[C@@H]1CN(c2ccc(C(F)(F)F)nc2)C[C@H](C)N1CC(=O)N1CCc2nn(-c3ccccc3)cc2C1` [compound 20, 2-[(2S,6R)-2,6-dimethyl-4-(6-trifluoromethylpyridin-3-yl)piperazin-1-yl]-1-(2-phenyl-2,4,6,7-tetrahydropyrazolo[4,3-c]pyridin-5-yl)ethanone], for which the melting point is 174 to 175 °C. Then `O=C(CN1CC2CCC(C1)N2c1ccc(-c2ncon2)cn1)N1CCc2nn(-c3ccccc3)cc2C1`, with 201 to 202 °C. To `O=C(CN1CC2CCC(C1)N2c1cccnc1)N1CCc2nn(-c3ccc(C(F)(F)F)cn3)cc2C1` belongs 150 to 151 °C; to `C[C@@H]1CN(CC(=O)N2CCc3nc(-c4ccccc4)sc3C2)[C@@H](C)CN1c1ccc(C#N)cn1` [compound 59, 6-{(2R,5S)-2,5-dimethyl-4-[2-oxo-2-(2-phenyl-6,7-dihydro-4H-thiazolo[5,4-c]pyridin-5-yl)ethyl]piperazin-1-yl}nicotinonitrile], 159 to 160 °C; to `C[C@@H]1CN(c2ccc(C(=O)O)cn2)C[C@H](C)N1CC(=O)N1CCc2nn(-c3ccccn3)cc2C1` [compound 140, 6-{(3S,5R)-3,5-dimethyl-4-[2-oxo-2-(2-pyridin-2-yl-2,4,6,7-tetrahydropyrazolo[4,3-c]pyridin-5-yl)ethyl]piperazin-1-yl}nicotinic acid], 147 to 150 °C. The compound `C[C@@H]1CN(c2cccnc2)C[C@H](C)N1CC(=O)N1CCc2nn(-c3ccc(F)cn3)cc2C1` [compound 142, 2-((2S,6R)-2,6-dimethyl-4-pyridin-3-ylpiperazin-1-yl)-1-[2-(5-fluoropyridin-2-yl)-2,4,6,7-tetrahydropyrazolo[4,3-c]pyridin-5-yl]ethanone] showed a melting point of 180 to 181 °C. As for `O=C(CN1CC2CCC(C1)N2c1ccc(C(F)(F)F)cn1)N1CCc2nn(-c3ccc(C(F)(F)F)cn3)cc2C1`, the melting point fell in the range of 192 to 193 °C. The compound `O=C(CN1CC2CCC(C1)N2c1ncc(F)cn1)N1CCc2nc(-c3ccncc3)sc2C1` had a melting point of 193 to 194 °C.

Compound `C[C@@H]1CN(c2ccc(C(F)(F)F)nc2)C[C@H](C)N1CC(=O)N1CCc2nc(-c3ccccc3)sc2C1` [compound 18, 2-[(2S,6R)-2,6-dimethyl-4-(6-trifluoromethylpyridin-3-yl)piperazin-1-yl]-1-(2-phenyl-6,7-dihydro-4H-thiazolo[5,4-c]pyridin-5-yl)ethanone] returned a melting point of 168 to 169 °C. To `CCn1cc2c(n1)CCN(C(=O)CN1CC3CCC(C1)N3c1ccc(C(F)(F)F)cn1)C2` belongs 99 to 100 °C; to `C[C@@H]1CN(c2ccc3ccccc3n2)C[C@H](C)N1CC(=O)N1CCc2nn(-c3ccccc3)cc2C1` [compound 129, 2-((2S,6R)-2,6-dimethyl-4-quinolin-2-ylpiperazin-1-yl)-1-(2-phenyl-2,4,6,7-tetrahydropyrazolo[4,3-c]pyridin-5-yl)ethanone], 203 to 204 °C; to `CC(C)OC(=O)c1ccc(N2C[C@@H](C)N(CC(=O)N3CCc4nn(-c5ccccc5)cc4C3)[C@@H](C)C2)nc1` [compound 98, 6-{(3S,5R)-3,5-dimethyl-4-[2-oxo-2-(2-phenyl-2,4,6,7-tetrahydropyrazolo[4,3-c]pyridin-5-yl)ethyl]piperazin-1-yl}nicotinic acid isopropyl ester], 135 to 136 °C.

`C[C@@H]1CN(c2ccc(C(F)(F)F)cn2)C[C@H](C)N1CC(=O)N1CCc2nn(C)cc2C1` (as salt: HCl) [compound 100, 2-[(2S,6R)-2,6-dimethyl-4-(5-trifluoromethylpyridin-2-yl)piperazin-1-yl]-1-(2-methyl-2,4,6,7-tetrahydropyrazolo[4,3-c]pyridin-5-yl)ethanone] gave a melting point of 50 to 51 °C. Then `COC(=O)c1ccc(N2CC3CCC(C2)N3CC(=O)N2CCc3nc(-c4ccccc4)sc3C2)nc1`, with 162 to 163 °C; and `O=C(CN1CC2CCC(C1)N2c1ncc(F)cn1)N1CCc2c(cnn2CC(F)(F)F)C1` (as salt: oxalate), with 160 to 162 °C.

With `C[C@@H]1CN(c2ccc(-c3nnn(C)n3)cn2)C[C@H](C)N1CC(=O)N1CCc2nn(-c3ccccc3)cc2C1` [compound 87, 2-{(2S,6R)-2,6-dimethyl-4-[5-(2-methyl-2H-tetrazol-5-yl)pyridin-2-yl]piperazin-1-yl}-1-(2-phenyl-2,4,6,7-tetrahydropyrazolo[4,3-c]pyridin-5-yl)ethanone], the melting point lay in the range of 182 to 183 °C. `O=C(CN1CC2CCC(C1)N2c1ncc(F)cn1)N1CCc2c(cnn2-c2ccc(C(F)(F)F)cc2)C1` showed a melting point of 162 to 164 °C. `C[C@@H]1CN(c2ncc(C(=O)O)cn2)C[C@H](C)N1CC(=O)N1CCc2nn(-c3ccccc3)cc2C1` [compound 75, 2-{(3S,5R)-3,5-dimethyl-4-[2-oxo-2-(2-phenyl-2,4,6,7-tetrahydropyrazolo[4,3-c]pyridin-5-yl)ethyl]piperazin-1-yl}pyrimidine-5-carboxylic acid] came in with a melting point of 94 to 97 °C. To `O=C(CN1CC2CCC(C1)N2c1ncc(F)cn1)N1CCc2nc(-c3ccccc3)ncc2C1` belongs 212 to 213 °C; to `O=C(O)c1ccc(N2CC3CCC(C2)N3CC(=O)N2CCc3nc(-c4ccccc4)sc3C2)nc1`, 250 to 251 °C. Then `O=C(OC1CCC1)c1ccc(N2C3CCC2CN(CC(=O)N2CCc4nn(-c5ccccc5)cc4C2)C3)nc1`, with 176 to 177 °C; and `COc1ccc(-c2nc3c(s2)CN(C(=O)CN2CC4CCC(C2)N4c2ncc(F)cn2)CC3)cc1`, with 203 to 207 °C. To `O=C(CN1CCN(c2ccc(C(F)(F)F)cn2)C(=O)C1)N1CCc2c(cnn2CC(F)(F)F)C1` (as salt: oxalate) [compound 66, 4-{2-oxo-2-[1-(2,2,2-trifluoroethyl)-1,4,6,7-tetrahydropyrazolo[4,3-c]pyridin-5-yl]ethyl}-1-(5-trifluoromethylpyridin-2-yl)piperazin-2-one] belongs 82 to 83 °C; to `O=C(CN1CCN(c2ccc(C(F)(F)F)cn2)C(=O)C1)N1CCc2sc(-c3ccccc3)nc2C1` [compound 82, 4-[2-oxo-2-(2-phenyl-6,7-dihydro-4H-thiazolo[4,5-c]pyridin-5-yl)ethyl]-1-(5-trifluoromethylpyridin-2-yl)piperazin-2-one], 140 to 142 °C.

A word on the melting point: it is the temperature of the solid-liquid transition.
